Measured values taken from patent US20110178072A1, “STEREOSPECIFICITY OF METHYLSULFINYL REDUCTION” (priority 2008, published 2011).

Columns and labels:
[1] = tested on: SK-Hep1 cells; experiment: Growth and morphology of SK-Hep1 cells in Met-free DMEM supplemented with Met or Met sulfoxides (MTS proliferation assay, microscopy); assay type: cell-based, human; settings: for Growth of SK-Hep1 cells: Met-free DMEM supplemented with 0.1 mM of the compound; for Morphology of SK-Hep1 cells: after 96 hours on medium with 0.1 mM of the compound
Description: Cell culture—SK-Hep1 (ATCC: HTB-52™) and fRMsr-transfected SK-Hep1 cells were cultured in DMEM or Met-free DMEM (GIBCO) media, supplemented with 0.1 mM Met, 0.1 mM Met-RO, 0.1 mM Met-SO, or 0.1 mM Met-RSO. […] Thus, 0.1 mM Met sulfoxides were used in the experiments described below. Cell culture experiments, with the exception of a proliferation assay, were carried out in 6-well plates, and cells were maintained at 37° C. in a 5% CO2 atmosphere. Proliferation Assay—Cell growth was quantified using colorimetric MTS assay (Promega). Cells in regular DMEM medium were plated in 96-well plates at 5×10^3 cells/well, washed with PBS, and specialized DMEM media were added that contained Met, Met-SO, Met-RO, or Met-RSO 24 hours after plating. To assay for cell proliferation, a tetrazolium compound [3-(4,5-dimethylthiazol-2-yl)-5-(3-carboxymethoxyphenyl)-2-(4-sulfophenyl)-2H-tetrazolium, inner salt; MTS] and an electron coupling reagent (phenazine methosulfate; PMS) were mixed according to the manufacturer's protocol and then 20 μL of the mixture were added to 100 μL of phenol red-excluded media that further replaced cell culture media. After 90 minutes of incubation at 37° C. in the atmosphere of 5% CO2, cell proliferation was measured at indicated time periods from 0 to 96 hours at 450 nm in a plate reader. Direct counting of viable cells using 0.2% trypan blue was done in 6-well plates. Microscopy—A Nikon TE-300 Widefield Microscope was used to prepare images of SK-Hep1 cells grown on different Met and Met sulfoxide media. Microscopy analyses were carried out in the University of Nebraska Microscopy Core Facility.

[2] = tested on: ATF3; experiment: Western blot analysis of ATF3 in SK-Hep1 cells grown on Met and Met sulfoxide media; assay type: cell-based, human; settings: 72 hours, compared with cells on Met or Met-SO
Description: Analysis of SK-Hep1 and fRMsr-transfected SK-Hep1 cells—SK-Hep1 and fRMsr-transfected SK-Hep1 cells were plated in 6-well plates at 7.5×10^4 cells/well in regular DMEM medium. The medium was changed to Met-free DMEM supplemented with either Met or individual Met sulfoxides at 24 hours after plating. Cells were then collected every 24 hours until 96 hours. Protein concentration was measured by the Bradford assay and the samples were probed by standard immunoblot assays with polyclonal MsrA (kindly provided by Bertrand Friguet), cystathionine beta synthase (CBS) (kindly provided by Ruma Banerjee), and activating transcription factor 3 (ATF3) (Santa Cruz Biotechnology) antibodies.

| SMILES | Growth of SK-Hep1 cells [1] | Morphology of SK-Hep1 cells [1] | Expression levels of ATF3 [2] |
| --- | --- | --- | --- |
| C[S@@+]([O-])CC[C@H](N)C(=O)O [Met-RO, methionine-R-sulfoxide] | did not support growth | long and narrow | low expression levels of ATF3 |
| C[S@+]([O-])CC[C@H](N)C(=O)O [Met-SO, methionine-S-sulfoxide] | could also proliferate | resembled those maintained in the presence of Met |  |
